From article PMC8041304, “Halogen Atoms in the Protein–Ligand System. Structural and Thermodynamic Studies of the Binding of Bromobenzotriazoles by the Catalytic Subunit of Human Protein Kinase CK2” (The Journal of Physical Chemistry. B, 2021)
Values joined by “and” are separate entries in the source; they are usually repeats but may differ in a detail not shown here. Equal entries are not always repeated.

What was measured:
hCK2α [1] = target: T1, hCK2α (Homo sapiens, UniProt P68400); assay: Fluorescence-monitored thermal denaturation (nanoDSF) of hCK2α complexes; assay type: binding; conditions: protein 2.5 μM, ligand 25 μM; for Tm (°C) at pH 7.5: hCK2α in complex with ligand; for ΔTm (°C) at pH 7.5: unfolding temperature with ligand minus without
T1 construct: made in house
T1 sequence (P68400 whole entry): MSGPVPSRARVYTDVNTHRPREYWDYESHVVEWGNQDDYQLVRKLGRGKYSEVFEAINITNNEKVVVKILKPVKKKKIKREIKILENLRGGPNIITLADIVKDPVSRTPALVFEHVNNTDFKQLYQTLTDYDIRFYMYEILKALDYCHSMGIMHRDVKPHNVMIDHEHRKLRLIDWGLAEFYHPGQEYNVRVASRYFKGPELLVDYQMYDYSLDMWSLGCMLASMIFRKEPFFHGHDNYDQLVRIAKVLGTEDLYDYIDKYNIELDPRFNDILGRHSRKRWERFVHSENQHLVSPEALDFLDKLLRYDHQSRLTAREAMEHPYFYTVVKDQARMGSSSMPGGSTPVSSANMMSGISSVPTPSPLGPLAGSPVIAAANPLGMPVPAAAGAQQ
Method: The samples were loaded into nanoDSF grade Standard Capillaries (NanoTemper Technologies) and analyzed using the Prometheus NT.48 nanoDSF device (NanoTemper Technologies). Thermal unfolding of the protein was monitored using a linear thermal ramp (1 °C·min^–1; 20–80 °C) with an excitation power of 30%.
This prompted us to measure the thermal stabilities of hCK2α and its complexes at pH 7.5 by fluorescence-monitored thermal denaturation (nanoDSF) (Table 2).

hCK2α [2] = target: T1, hCK2α; assay: Isothermal titration calorimetry (MicroCal iTC200), reverse titration; assay type: binding; conditions: for ΔGbind, free energy of binding: ITC; for ΔSrt, entropic term for loss of ligand rotational and translational degrees of freedom: calculated from ligand molecular mass; for Ts, temperature at which the entropy change upon ligand binding is zero: estimated from the linear fit of ΔS(T); for ΔSother, entropy change assigned to all other processes accompanying ligand binding: ΔSrt + ΔSHE(Ts) + ΔSother = 0; for ΔSHE(Ts), hydrophobic-effect contribution to the entropy change upon binding: ≈ 1.35∙ΔCp,bind∙ln(Ts/386)
Method: ITC measurements were carried out using the MicroCal iTC200 (Malvern) calorimeter. The hCK2α samples were diluted to the required protein concentration with the 25 mM Tris-HCl pH 8 buffer containing 0.5 M NaCl. Stock ligand solutions were diluted with the appropriate DMSO volume prior to mixing with the buffer to obtain the required ligand concentration and a final DMSO content of 1%. Due to the limited solubility of halogenated benzotriazoles, all titration experiments were performed in the reverse mode, in which buffered ligand solution was placed in the calorimetric cell and titrated with the protein solution.[35]
In all experiments the maximum ligand concentration of 10 μM was used to minimize a possible contribution of the secondary binding site.

[3] = Density measurements: partial molar volume and thermal expansivity of the solute; assay type: physicochemical; conditions: 50 mM phosphate buffer pH 11; for α2^0, thermal volumetric expansivity of the solute: 20, 25, 30 °C; for V2^0, partial molar volume: 25 °C
Method: Partial molar volumes were estimated with a density meter Anton Paar DMA 5000 M at 20, 25, and 30 °C from the concentration–density dependency for compounds dissolved in 50 mM phosphate buffer (pH 11). The experimental procedure and the data analysis method were described previously.[36],[57],[58] The partial molar volume at 25 °C (V2^0) and thermal volumetric expansivity of the solute (α2^0 = ∂V2^0/∂T) were estimated globally from two independent dilution series. The density of pure solvent (d0) was extrapolated individually for each experimental condition (i.e., temperature and buffer preparation). The change of d0 with temperature was further used to determine thermal volumetric expansivity coefficient of the bulk buffer according to the formula α0 = −(∂d0/∂T)/d0.
According to the Lum, Chandler, and Weeks (LCW) theory, the hydrophobic interactions scale for solutes of subnanometer size with the volume of the molecule rather than its surface.[61] We have recently proposed partial molar volume as the extensive parameter to describe both the solute volume and the solute-induced reorganization of the solvation shell.[36],[57],[58],[62],[63] By analyzing density data at three temperatures (20, 25, and 30 °C), we could estimate the partial molar volume of the ligand (V2^0) and the bulk solvent density (d0(T)). We could further separate the thermal expansivity coefficient of the bulk solvent (α0) and the apparent expansivity of the solute (α2^0). The latter parameter is comprised mainly of the thermal expansion effect of the hydration shell. The values of α0 fell within the narrow range of (26.9 ± 1.3) × 10^–5 K^–1, which is close to the literature data for water (25.72 × 10^–5 K^–1 at 25 °C).[64] […] The solute thermal expansivity (α2^0), together with the change of isobaric heat capacity upon ligand binding (ΔCp,bind), has already been associated with the properties of the solvation layer.[65],[66] Importantly, α2^0 is proportional to the partial molar volume V2^0 (Figure 3D). So, V2^0 may be another descriptor of hydrophobic interactions. Consequently, the volume-normalized solute expansivity coefficient (α = α2^0/V2^0) is almost the same for all studied bromobenzotriazoles (232 ± 22 × 10^–5 K^–1). Importantly, this value substantially exceeds the thermal expansivity coefficient of the bulk buffer (α0 = 26.9 ± 1.3 × 10^–5 K^–1), clearly confirming that water organization changes with temperature more near the solute surface than in the bulk.

hCK2α [4] = target: T1, hCK2α; design: method as in PMID 25891901; conditions: cited from earlier work
hCK2α [5] = target: T1, hCK2α; design: method as in PMID 23155426; conditions: pH 7.5; cited from earlier work
[6] = design: method as in doi:10.1016/j.molliq.2019.111527; conditions: calculated water–octanol partition coefficient; cited from earlier work
[7] = design: method as in PMID 32162783; conditions: HPLC-derived hydrophobicity; cited from earlier work
[8] = iTC200, 15 °C, pH 8, independent experiments separately evaluated
[9] = iTC200, 20 °C, pH 8, independent experiments separately evaluated
[10] = iTC200, 25 °C, pH 8, independent experiments separately evaluated
[11] = iTC200, 30 °C, pH 8, independent experiments separately evaluated
[12] = iTC200, 35 °C, pH 8, independent experiments separately evaluated

SMILES	Tm (°C) at pH 7.5 (hCK2α [1]) [°C]	ΔTm (°C) at pH 7.5 (hCK2α [1]) [°C]	ΔGbind, free energy of binding (hCK2α [2]; 25 °C, pH 8)	ΔSrt, entropic term for loss of ligand rotational and translational degrees of freedom (hCK2α [2]) [J∙mol-1∙K-1]	Ts, temperature at which the entropy change upon ligand binding is zero (hCK2α [2]) [K]	Kd (hCK2α [2]; [8])	ΔS (hCK2α [2]; [8])	Kd (hCK2α [2]; [9])	ΔS (hCK2α [2]; [9])	Kd (hCK2α [2]; [10])	Kd (hCK2α [2]; [11])	Kd (hCK2α [2]; [12])	ΔSother, entropy change assigned to all other processes accompanying ligand binding (hCK2α [2]) [J∙mol-1∙K-1]	ΔSHE(Ts), hydrophobic-effect contribution to the entropy change upon binding (hCK2α [2]) [J∙mol-1∙K-1]	α2^0, thermal volumetric expansivity of the solute [3] [cm^3·mol^–1·K^–1]	V2^0, partial molar volume [3] [cm^3·mol^–1]	ΔTm (°C) at pH 8 (hCK2α [4]) [°C]	IC50 (hCK2α [5]) [µM]	log P [6]	log(τ) [7]	further results
Brc1ccc2[nH]nnc2c1Br [4,5-Br2Bt]	49.55 ± 0.05	4.4 ± 0.1	–34.9 ± 0.4 kJ·mol^–1	-291	299 ± 37	0.26 µM and 0.47 µM	21 ± 6 J·mol-1·K-1 and 22 ± 6 J·mol-1·K-1	0.61 µM and 0.54 µM	8 ± 6 J·mol-1·K-1 and 7 ± 15 J·mol-1·K-1	0.77 µM and 0.67 µM	0.88 µM and 1.43 µM	1.44 µM and 1.16 µM	143 ± 17	148 ± 17	0.36 ± 0.21	151.7 ± 0.9	3.5 ± 0.1	10.6 ± 0.9	2.34	–0.39	ΔH (hCK2α [2]; [9]): -7.89 ± 0.359 kcal/mol and -7.89 ± 0.884 kcal/mol
Brc1cc(Br)c2n[nH]nc2c1 [4,6-Br2Bt]	49.21 ± 0.04	4.0 ± 0.1	–34.5 ± 0.4 kJ·mol^–1	-291	301 ± 47	0.343 µM and 0.54 µM	26 ± 8 J·mol-1·K-1 and 23 ± 12 J·mol-1·K-1	0.55 µM and 0.68 µM	7 ± 15 J·mol-1·K-1 and 11 ± 13 J·mol-1·K-1	0.9 µM and 0.88 µM	1.25 µM and 1.14 µM and 0.84 µM	2.4 µM and 1.77 µM	143 ± 20	148 ± 20	0.41 ± 0.21	155.4 ± 0.9	3.6 ± 0.1	10 ± 2.2	2.37	–0.38	ΔS (hCK2α [2]; [10]): 5 ± 8 J·mol-1·K-1 and 9 ± 15 J·mol-1·K-1; ΔS (hCK2α [2]; [12]): -26 ± 71 J·mol-1·K-1 and -26 ± 13 J·mol-1·K-1
Brc1ccc(Br)c2n[nH]nc12 [4,7-Br2Bt]	47.15 ± 0.03	2.0 ± 0.1													0.19 ± 0.25	149.8 ± 1.0	0.9 ± 0.1	72 ± 11	2.37	–0.55	
Brc1cccc2n[nH]nc12 [4-BrBt]	45.92 ± 0.05	0.7 ± 0.1													0.30 ± 0.08	139.6 ± 0.3	0.5 ± 0.1	119 ± 10	1.72	–0.65	
